SMILES strings stand for the structures. Converted amounts (≈) assume the structure as drawn. “Also recorded” adds a separate entry of the source.

In series [1] the test system is acetic acid-induced writhing. The series is described as follows: Acetic acid-induced writhing test. The class given is in vivo. The note with it: mice pretreated by oral or intravenous administration prior to acetic acid.
In series [2] the test system is IL-6 mRNA in RAW 264.7 cells. Put plainly: IL-6 mRNA expression in LPS-stimulated macrophages (RT-PCR). The format is cell-based, murine. The note with it: LPS-activated macrophages, single oligosaccharide, 6 hours. The protocol: (§1) RAW246.7 cells were exposed to LPS either alone or in combination with either pooled human milk oligosaccharides (HMOs), or 3′-sialyllactose (3′SL) or 2′-fucosyllactose (2′FL). After 6 hours, IL-6 (A) and IL-1β (B) mRNA levels were measured by RT-PCR and are plotted as mean±standard deviation (n=8) relative the respective mRNA levels in cells that were exposed to LPS alone (**p<0.01; ***p<0.001). HMOs are a group of more than 150 different structurally distinct oligosaccharides and their composition follows a basic structural blueprint (C), containing five monosaccharide building blocks: glucose (dark gray circle), galactose (light gray circle), N-acetylglucosamine (dark gray square), fucose (gray triangle) and sialic acid (gray diamond). 3′SL contains lactose with sialic acid at the terminal end; 2′FL contains lactose with fucose at the terminal end.
(§2) Oligosaccharides Reduce Pro-Inflammatory Cytokine mRNA Expression in Stimulated Macrophages. HMOs were first isolated and purified from pooled human donor milk (pHMO) by using polymixin B affinity chromatography to remove any lipopolysaccharide (LPS) contamination. RAW 264.7 cells, a murine macrophage cell line, were then incubated with LPS (10 ng/mL) and pHMO (500 μg/mL) for 6 hours. RT-PCR was used to measure cytokine mRNA expression. […]

The test system of series [3] is IL-1β mRNA in RAW 264.7 cells. Put plainly: IL-1β mRNA expression in LPS-stimulated macrophages (RT-PCR). The conditions noted are these: LPS-activated macrophages, single oligosaccharide, 6 hours. The format is cell-based, murine. The protocol:
as §1, §2

Series [4] has as its system bone marrow derived macrophages. Put plainly: Pro-inflammatory cytokine expression in primary mouse cells. The format is cell-based. An excerpt:
(§3) Accordingly, the results with 3′SL translate to primary cells as well as to human macrophages.

The test system of series [5] is collagen antibody-induced arthritis (CAIA) mouse model. Put plainly: Collagen antibody-induced arthritis (CAIA) model. The format is in vivo, BALB/c mice. The note with it: for histology score for cartilage damage / histology score for erosion / histology score for inflammation: hind paws, day 14, scored 0 to 4. The protocol:
Next, it was asked whether or not the in vitro results translate to an in vivo model. 3′ SL efficacy in a collagen antibody-induced arthritis (CAIA) model was tested in mice. In the CAIA model, arthritis is induced by systemic administration of a cocktail of monoclonal antibodies that target various regions of collagen type II, which is one of the major constituents of articular cartilage matrix proteins, followed by the administration of endotoxin (LPS) on day 3. The high uptake rate in the CAIA model and the capacity to synchronize the development of arthritis from the time of antibody injection, makes this a relatively straightforward model that is used to address questions of pathogenic mechanisms and to screen candidate therapeutic agents. 8-week old female BALB/c mice were injected with 1.5 mg of Arthrogen-CIA monoclonal antibody cocktail (Chondrex, Inc.).
Three days later, the mice were injected with 25 μg of LPS. Beginning with the time of LPS administration and followed for the next 11 consecutive days, mice were orally gavaged thrice daily with either 3′ SL (20 mg in saline) or saline alone as control. With the tester blinded to the study groups, arthritis in each limb was determined once per day. […] By adding together, the scores of all four limbs, the maximum score per mouse is 28. In addition, a caliper was placed across the ankle joint at the widest point to measure ankle thickness in both hind limbs daily. 14 days after antibody cocktail administration, mice were euthanized, and hind paws collected and processed for histology. H&E—as well as Toluidine blue-stained sections were scored from 0 to 4 for inflammation, bone erosion and cartilage depletion based on a previously validated scoring system.

The subject of series [6] is IL-6 and IL-1β mRNA expression. Put plainly: Dose-range finding for reduction of IL-6 and IL-1β mRNA expression in stimulated macrophages. The format is cell-based. The conditions noted are these: Macrophage, dose-range finding studies. An excerpt: A multi-dimensional chromatography approach was used that separates pHMO first by charge and then by size. […] To exclude that the observed effect was due to impurities or contaminations from the isolation process, the results were confirmed with synthetized and commercially available 3′SL. […] Other oligosaccharides like 2′-fucosyllactose (2′FL), where the terminal monosaccharide is fucose instead of sialic acid (see FIG. 1C), had no effect, emphasizing that the anti-inflammatory effect of 3′ SL in macrophages is specific to the structure of 3′SL.

For series [7], the system named is THP-1 monocytic cell line. The series is described as follows: Pro-inflammatory cytokine expression in human monocytic cell line. The format is cell-based. The conditions noted are these: human THP-1 monocytic cell line.
Text: as §3

Where [8] appears, read: CAIA mice, oral gavage 20 mg thrice daily from LPS trigger, vs saline.
Where [9] appears, read: oral gavage 20 mg thrice daily, listed as 3′ SL.

On to `CC(=O)N[C@H]1[C@H]([C@H](O)[C@H](O)CO)O[C@@](O[C@H]2[C@@H](O)[C@@H](CO)O[C@@H](O[C@H]3[C@H](O)[C@@H](O)C(O)O[C@@H]3CO)[C@@H]2O)(C(=O)O)C[C@@H]1O` (stereo partly drawn) [Sialyllactose], for which the inhibition of writhing result in series [1] is reported as “causes inhibition of writhing”.

On to `CC(=O)N[C@H]1C([C@H](O)[C@H](O)CO)O[C@@](O[C@@H]2C(O)[C@H](O[C@@H]3C(CO)O[C@@H](O)C(O)[C@H]3O)OC(CO)[C@@H]2O)(C(=O)O)C[C@H]1O` (stereo partly drawn) [3′SL, 3′-sialyllactose], for which, in series [2], the “reduction of IL-6 mRNA expression” value is reported as “most effective; also recorded: reduces”. Also, the “reduction of IL-1β mRNA expression” value in series [3] was “most effective; also recorded: reduces”. Also, in series [4], the pro-inflammatory cytokine expression result was “reduced pro-inflammatory cytokine expression”. Also, in series [5] (setting [8]), the “Baseline-corrected ankle thickness (paw swelling)” value is “significantly reduced; also recorded: reduces” and the “clinical index score 28” value is given as “significantly reduced; also recorded: reduces”. Further, in series [5] (oral gavage 20 mg thrice daily), the “histology score for cartilage damage” value was “significantly lower”, the “histology score for erosion” value is “significantly lower” and the “histology score for inflammation” value is given as “significantly lower”. Further, in series [5] (setting [9]), the “histology score for cartilage damage” value is recorded as “significantly reduced”, the “histology score for erosion” value is reported as “significantly reduced” and the “histology score for inflammation” value is on record as “significantly reduced”. The adverse effects entry in series [5] (throughout the 14-day study period, CAIA mice, oral gavage 20 mg thrice daily) is listed as “No adverse effects”. Also, in series [6], the IC50 was approximately 15 mg/L (≈ 23.7 µM). Further, in series [7], the pro-inflammatory cytokine expression result is given as “reduced pro-inflammatory cytokine expression”.

Source of the values: patent US12383569B2, “Immunomodulatory oligosaccharides for the treatment of pain” (Intrinsic Medicine, Inc., priority 2019, dated 2025).
